Several values for one entry are separate records, joined by “and”; a condition that tells them apart may be missing. Equal entries are not always repeated. Where two headings read alike, the source gives them in different places.
Key:
[1] = tested on: primary AML specimens; test: Dose-response assays in primary AML specimens (6 days, CellTiterGlo); assay type: cell-based, human; details: Homo sapiens, 144 h, 6 days, read-out: IC50
Description: Freshly thawed primary AML specimens were used for chemical screens. Cryopreserved cells were thawed at 37 °C in IMDM containing 20% FBS and DNase I (100 μg/mL). Cells were resuspended in IMDM supplemented with 15% BIT (BSA, insulin, transferrin; StemCell Technologies), 100 ng/mL SCF, 50 ng/mL FLT3L, 20 ng/mL IL3, 20 ng/mL G-CSF, 10^−4 mol/L b-mercaptoethanol, gentamicin (50 μg/mL), ciprofloxacin (10 μg/mL), SR1 (500 nmol/L) and UM729 (500 nmol/L). Cells were plated in 384-well white plates, 5000 cells per well in 50 μL. Compounds were dissolved in DMSO, diluted in media immediately before use and added to seeded cells at the unique concentration of 1 μM. Control wells received DMSO (0.1%) only. Cell viability was evaluated after 6 days in culture using the CellTiterGlo assay according to the manufacturer’s instruction. Percentage of inhibition for dose response curves was calculated as 100 – (100 × (mean luminescence [compound]/mean luminescence [DMSO])). Dose response curves were generated using nonlinear regression in GraphPad Prism version.
Dose-response assays in primary AML specimens were performed as in chemical screen (see above) with the exception that compounds were tested in serial dilution (8 dilutions, 1:4, 10 μM down to 0.5 nM). Dose-response assays in OCI-AML5 cell line were conducted similarly with the following modifications: 300 cells per well were seeded in 50 μL of cell line media and cell viability was evaluated after 4 days in culture.

[2] = tested on: OCI-AML5 cells expressing shRNAs targeting CDK1, 2, 4, 7, 9, cyclin K; test: Dose response in OCI-AML5 expressing shRNAs targeting CDK1, 2, 4, 7, 9, cyclin K or control; assay type: cell-based, H. sapiens
[3] = tested on: cyclin KeGFP; test: Cyclin KeGFP reporter system (eGFP/mCherry MFI by flow cytometry); assay type: cell-based, H. sapiens
Outline: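 Degradation read as eGFP-to-mCherry MFI ratio relative to DMSO controls, from flow cytometry of the selected G7 clone of OCI-AML5 cells transduced with the cyclin KeGFP reporter.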

[4] = tested on: OCI-AML5 cells; test: Dose-response proliferative assay in OCI-AML5 (4 days, CellTiterGlo); assay type: cell-based, H. sapiens; details: Homo sapiens, OCI-AML-5, OCI-AML5 cells; read-out: IC50 in AML5
Outline: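 Viability assessed after 4 days of compound exposure at 37 °C, 5% CO2. Compounds tested as 8 dilutions (1:4, 10 μM to 0.5 nM) on 300 OCI-AML5 cells/well grown in αMEM with 10% heat-inactivated FBS and 10 ng/mL GM-CSF.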

[5] = tested on: OCI-AML5 cells expressing shRNA targeting CUL4A or CUL4B; test: Dose response in OCI-AML5 expressing shRNAs targeting CUL4A, CUL4B or control; assay type: cell-based, H. sapiens
[6] = biological target: T1, CDK1 (Homo sapiens, UniProt P06493); test: CDK1 in vitro kinase activity, single concentration 1 μM; assay type: biochemical; details: single concentration 1 μM
T1 construct: purchased BPS Bioscience 79597
T1 sequence (P06493 whole entry): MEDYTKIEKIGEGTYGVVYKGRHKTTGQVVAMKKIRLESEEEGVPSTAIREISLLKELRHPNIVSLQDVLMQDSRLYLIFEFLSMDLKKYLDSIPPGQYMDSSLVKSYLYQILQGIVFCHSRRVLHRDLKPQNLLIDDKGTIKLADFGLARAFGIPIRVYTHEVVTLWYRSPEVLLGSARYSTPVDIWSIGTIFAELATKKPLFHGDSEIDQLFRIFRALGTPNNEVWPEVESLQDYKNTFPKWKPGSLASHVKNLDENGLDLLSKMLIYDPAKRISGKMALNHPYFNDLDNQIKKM
T1 sequence (P14635 whole entry partner): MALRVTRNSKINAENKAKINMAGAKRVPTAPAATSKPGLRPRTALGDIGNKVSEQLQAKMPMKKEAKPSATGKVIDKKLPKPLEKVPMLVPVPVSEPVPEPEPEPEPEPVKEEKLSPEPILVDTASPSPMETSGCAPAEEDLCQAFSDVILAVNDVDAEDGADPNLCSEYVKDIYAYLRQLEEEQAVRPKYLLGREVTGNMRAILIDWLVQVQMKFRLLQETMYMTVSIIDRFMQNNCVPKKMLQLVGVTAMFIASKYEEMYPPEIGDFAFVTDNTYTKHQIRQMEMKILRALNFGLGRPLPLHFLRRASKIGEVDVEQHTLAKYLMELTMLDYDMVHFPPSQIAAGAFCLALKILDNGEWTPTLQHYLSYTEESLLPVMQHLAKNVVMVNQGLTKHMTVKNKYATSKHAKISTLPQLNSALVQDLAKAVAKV
Description: (§1) Kinase activity was assessed using the kinase assay kits from BPS Bioscience for CDK1, CDK9 and CDK12 with Kinase Glo MAX in duplicates. Compounds were tested at a single concentration of 1 μM for CDK1 and CDK9 activity, and in a dilution ranging from 0.64 nM to 50 μM for CDK12 activity. Chemiluminescence was read using the Neo Synergy BioTek plate reader.

[7] = biological target: T2, CDK9/CyclinT (Homo sapiens, UniProt P50750); test: CDK9/CyclinT in vitro kinase activity, single concentration 1 μM; assay type: biochemical; details: single concentration 1 μM
T2 construct: purchased BPS Bioscience 79628
T2 sequence (P50750 whole entry): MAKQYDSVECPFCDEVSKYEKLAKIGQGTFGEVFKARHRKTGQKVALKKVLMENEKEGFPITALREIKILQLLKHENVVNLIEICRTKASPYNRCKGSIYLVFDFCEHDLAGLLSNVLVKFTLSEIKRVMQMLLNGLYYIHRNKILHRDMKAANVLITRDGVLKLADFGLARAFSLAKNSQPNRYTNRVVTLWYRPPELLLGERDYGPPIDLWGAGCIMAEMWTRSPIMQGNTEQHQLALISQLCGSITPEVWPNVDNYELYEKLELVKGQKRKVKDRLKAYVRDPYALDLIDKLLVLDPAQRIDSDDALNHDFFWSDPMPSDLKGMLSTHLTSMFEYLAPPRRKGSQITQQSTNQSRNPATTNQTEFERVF
T2 sequence (O60563 whole entry partner): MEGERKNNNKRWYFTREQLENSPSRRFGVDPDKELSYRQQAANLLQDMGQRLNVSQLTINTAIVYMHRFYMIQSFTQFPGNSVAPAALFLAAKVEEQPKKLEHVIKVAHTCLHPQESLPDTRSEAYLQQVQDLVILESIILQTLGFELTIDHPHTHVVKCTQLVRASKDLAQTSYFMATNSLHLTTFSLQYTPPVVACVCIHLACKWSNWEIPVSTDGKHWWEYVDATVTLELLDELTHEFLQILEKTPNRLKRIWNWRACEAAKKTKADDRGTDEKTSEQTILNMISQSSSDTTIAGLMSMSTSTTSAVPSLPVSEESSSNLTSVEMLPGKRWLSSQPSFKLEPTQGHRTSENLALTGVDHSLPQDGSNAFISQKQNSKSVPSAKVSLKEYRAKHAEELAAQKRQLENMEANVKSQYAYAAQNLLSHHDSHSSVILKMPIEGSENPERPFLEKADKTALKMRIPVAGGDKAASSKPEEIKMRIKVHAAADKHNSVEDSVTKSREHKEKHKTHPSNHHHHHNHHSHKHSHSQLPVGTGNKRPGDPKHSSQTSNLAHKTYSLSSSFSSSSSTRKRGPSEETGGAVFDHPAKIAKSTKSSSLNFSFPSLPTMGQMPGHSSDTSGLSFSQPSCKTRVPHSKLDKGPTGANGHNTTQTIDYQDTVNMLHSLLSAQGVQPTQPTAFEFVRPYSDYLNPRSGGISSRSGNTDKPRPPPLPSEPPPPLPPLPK
Description: as §1

In the case of `CC(C)(C)c1cnc(CSc2cnc(NC(=O)C3CCNCC3)s2)o1` [SNS-032, N-[5-[[[5-(1,1-dimethylethyl)-2-oxazolyl]methyl]thio]-2-thiazolyl]-4-piperidinecarboxamide], the IC50 ([1]; primary AML specimen 03H109) is reported as 97.3 nM, the IC50 ([1]; primary AML specimen 04H055) is reported as 85.7 nM and the IC50 ([1]; primary AML specimen 04H096) is reported as 118 nM. It also gave an IC50 ([1]; primary AML specimen 04H138) of 101 nM, an IC50 ([1]; primary AML specimen 05H113) of 153 nM and an IC50 ([1]; primary AML specimen 05H149) of 547 nM. For the same compound, the IC50 ([1]; primary AML specimen 05H193) was 164 nM, the IC50 ([1]; primary AML specimen 06H088) was 217 nM and the IC50 ([1]; primary AML specimen 06H117) was 134 nM. It also gave an IC50 ([1]; primary AML specimen 06H151) of 135 nM, an IC50 ([1]; primary AML specimen 07H003) of 94.5 nM and an IC50 ([1]; primary AML specimen 07H131) of 512 nM. It also gave an IC50 ([1]; primary AML specimen 07H144) of 165 nM, an IC50 ([1]; primary AML specimen 07H155) of 231 nM and an IC50 ([1]; primary AML specimen 08H018) of 618 nM. For the same compound, the IC50 ([1]; primary AML specimen 08H021) was 90.9 nM, the IC50 ([1]; primary AML specimen 08H056) was 79.4 nM and the IC50 ([1]; primary AML specimen 08H063) was 146 nM. It also gave an IC50 ([1]; primary AML specimen 08H085) of 309 nM, an IC50 ([1]; primary AML specimen 08H108) of 70.8 nM and an IC50 ([1]; primary AML specimen 08H118) of 291 nM. It also gave an IC50 ([1]; primary AML specimen 09H016) of 244 nM, an IC50 ([1]; primary AML specimen 09H070) of 123 nM and an IC50 ([1]; primary AML specimen 10H014) of 563 nM. For the same compound, the IC50 ([1]; primary AML specimen 10H046) was 306 nM, the IC50 ([1]; primary AML specimen 10H107) was 324 nM and the IC50 ([1]; primary AML specimen 10H127) was 71.5 nM. The IC50 ([1]; primary AML specimen 10H161) was 97.5 nM, the IC50 ([1]; primary AML specimen 10H174) was 211 nM and the IC50 ([1]; primary AML specimen 11H008) was 161 nM. The IC50 ([1]; primary AML specimen 11H019) was 214 nM, the IC50 ([1]; primary AML specimen 11H170) was 523 nM and the IC50 ([1]; primary AML specimen 11H217) was 74 nM. For the same compound, the IC50 ([1]; primary AML specimen 11H232) was 299 nM, the IC50 ([1]; primary AML specimen 12H033) was 280 nM and the IC50 ([1]; primary AML specimen 12H055) was 183 nM. It also gave an IC50 ([1]; primary AML specimen 12H148) of 208 nM, an IC50 ([1]; primary AML specimen 13H053) of 563 nM and an IC50 ([1]; primary AML specimen 15H045) of 256 nM. It also gave an IC50 ([1]; primary AML specimen 17H065) of 2500 nM, an IC50 ([2]; Homo sapiens, OCI-AML-5, 96 h, OCI-AML5, 4 days, read-out: IC50, sh CDK1) of 23.3 nM and an IC50 ([2]; Homo sapiens, OCI-AML-5, 96 h, OCI-AML5, 4 days, read-out: IC50, sh ctrl) of 37.4 nM. The IC50 ([2]; Homo sapiens, OCI-AML-5, 96 h, read-out: IC50, sh CDK7) was 24.5 nM, the IC50 ([2]; OCI-AML5, 4 days, read-out: IC50, sh CDK1) was 46.6 nM and 42 nM and the IC50 ([2]; OCI-AML5, 4 days, read-out: IC50, sh ctrl) was 47.4 nM and 50 nM. For the same compound, the Class ([2]; class from shRNA IC50 profile and cyclin K-eGFP degradation) was 2, the IC50 ([2]; read-out: IC50, sh CDK7) was 41 nM and the “MFI of cyclin KeGFP over mCherry” value ([3]; OCI-AML5 G7 clone, 3 h, 10 μM, normalized to DMSO (=100)) was 111.9 and 100.6 and 100.2 and 98.8 and 97.9. For the same compound, the “% degradation cyclin K-eGFP” value ([3]; cyclin K-eGFP reporter) was 0%, the IC50 [4] was 47 nM and the “potency upon CUL4A or CUL4B downregulation (for SNS-032, THZ531 also DDB1 depletion)” value ([5]; OCI-AML5, 4 days) was “remained unaffected”. For the same compound, the “Ratio shCUL4A/shCTRL” value ([5]; ratio of IC50 in shCUL4A vs shCTRL OCI-AML5 cells) was 1.01, the inhibition at 1 µM [6] was 77% and the inhibition at 1 µM [7] was 63%.

From paper PMC12152147, “DDB1 engagement defines the selectivity of S656 analogs for cyclin K degradation over CDK inhibition” (EMBO Reports, 2025)
